The test has as its target T1, aryl hydrocarbon receptor (AHR) (Homo sapiens, UniProt P35869).
T1 sequence (P35869 11-848): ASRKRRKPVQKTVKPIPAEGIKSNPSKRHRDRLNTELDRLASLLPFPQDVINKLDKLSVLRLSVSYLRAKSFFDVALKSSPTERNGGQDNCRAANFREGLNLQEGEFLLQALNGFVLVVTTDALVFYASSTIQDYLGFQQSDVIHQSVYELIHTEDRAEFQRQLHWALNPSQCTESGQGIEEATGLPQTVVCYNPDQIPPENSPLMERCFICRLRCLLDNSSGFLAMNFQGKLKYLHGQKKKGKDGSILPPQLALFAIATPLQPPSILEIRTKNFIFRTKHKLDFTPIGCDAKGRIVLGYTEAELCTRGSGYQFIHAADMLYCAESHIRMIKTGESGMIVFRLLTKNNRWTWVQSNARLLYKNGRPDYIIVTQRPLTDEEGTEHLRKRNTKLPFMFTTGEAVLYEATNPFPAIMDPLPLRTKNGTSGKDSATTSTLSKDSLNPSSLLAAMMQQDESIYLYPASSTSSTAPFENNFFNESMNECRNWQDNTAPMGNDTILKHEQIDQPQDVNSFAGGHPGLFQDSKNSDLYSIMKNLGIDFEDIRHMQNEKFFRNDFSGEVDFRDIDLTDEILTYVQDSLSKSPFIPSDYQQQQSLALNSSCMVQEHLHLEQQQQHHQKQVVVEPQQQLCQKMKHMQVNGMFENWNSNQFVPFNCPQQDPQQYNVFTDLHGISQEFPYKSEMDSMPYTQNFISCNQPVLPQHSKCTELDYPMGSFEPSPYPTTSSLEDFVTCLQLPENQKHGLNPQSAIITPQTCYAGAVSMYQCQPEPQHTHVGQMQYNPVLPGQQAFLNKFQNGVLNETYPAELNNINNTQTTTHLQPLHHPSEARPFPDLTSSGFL
Description: DRE-Luciferase reporter high-throughput screen (AHR antagonist, VAF347-activated). (Reporter assays use an easily measured gene product as a stand-in for the process of interest.)

pIC50: −log10 of the molar value.

The term pIC50 denotes the negative decadic logarithm of the IC50, by convention in mol/L. The compound `O=[N+]([O-])c1cc(C(F)(F)F)ccc1Oc1ccc(-c2noc(-c3ccccc3F)n2)cc1` [compound 157] had a pIC50 of 6.00 to 6.30.

In the case of `Cc1ccc(N2CCN(C(=O)Nc3cc(F)cc(F)c3)CC2)nn1` [78A], the pIC50 was 5.70 to 6.00.

On to `O=C(Nc1ncccc1Br)c1cc(-n2cccn2)ccn1` [17A], for which the pIC50 is 5.70 to 6.00.

Consider `Cc1cnn(Cc2ncc(-c3ccccc3Br)o2)c1` [77B], for which the pIC50 is less than 5.70.

`N#Cc1ccc(N2CCN(C(=O)Nc3cccc(C(F)(F)F)c3)CC2)nc1` [80A] gave a pIC50 of 5.70 to 6.00.

Turning to `COc1ccc([N+](=O)[O-])cc1-c1ccc(/C=N/Nc2ccccc2)o1` [44B], the pIC50 was 5.70 to 6.00.

Compound `CN(C)c1cccc(-c2nnc(-c3ccc(C(F)(F)F)cc3)[nH]2)c1` [compound 97] had a pIC50 of 6.30 to 6.70.

In turn, `Cn1c(N)c(C(=O)CSc2ccc(F)cc2)c(=O)n(C)c1=O` [195A] showed a pIC50 of 5.70 to 6.00.

On to `CSc1nc(-c2ccccc2)nc2[nH]c(-c3ccccc3)cc(=O)c12` [166A], for which the pIC50 is 5.70 to 6.00.

Consider `Clc1ccccc1CNc1ccc(-c2ccccc2)nn1` [87A], for which the pIC50 is 5.70 to 6.00.

In turn, `FCCCSc1nnc(-c2cc3cc4ccccc4nc3s2)o1` [compound 155] gave a pIC50 of 6.00 to 6.30.

For the compound `O=C1CSC(N2CCN(c3ccc(Cl)c(Cl)c3)CC2)=N1` [71A], the pIC50 is less than 5.70.

As to `Clc1ccc(Nc2nnc(-c3ccncc3)s2)cc1` [98B], the pIC50 is 5.70 to 6.00.

Regarding `CC(NC(=O)c1c(N)n(C)c2ccccc2c1=O)c1ccccc1` (centres unmarked) [165A], the pIC50 is less than 5.70.

As to `c1ccc(-c2nc(-c3ccc4c(c3)CCO4)no2)cc1` [85B], the pIC50 is 6.00 to 6.30.

`O=C(NCCc1ccccc1)c1cnc(-c2noc3ccccc23)s1` [60A]: the pIC50 is less than 5.70.

Turning to `O=C(Nc1ccc2ccccc2c1)c1cccc(NC(=O)C(F)(F)F)c1` [35A], the pIC50 is 5.70 to 6.00.

`Cn1c(N)c(-c2csc(-c3cccc(Cl)c3)n2)c(=O)n(C)c1=O` [36B] had a pIC50 of 5.70 to 6.00.

In turn, `COC(=O)c1cnn(-c2cc(Nc3c(F)cccc3F)ncn2)c1N` [compound 86] gave a pIC50 of 6.30 to 6.70.

`O=C(Nc1cc2ccccc2s1)c1ccccc1` [23B] had a pIC50 of 5.70 to 6.00.

The compound `Nc1nccc(-c2cc(-c3cccc(C(F)(F)F)c3)no2)n1` [80B] had a pIC50 of 6.00 to 6.30.

Consider `Cc1ccc(OCc2nc(N)nc(N(C)C)n2)cc1C` [51B], for which the pIC50 is 5.70 to 6.00.

`CC(=O)c1cnc(N2CCN(c3cccc(Cl)c3)CC2)nc1C` [69A]: the pIC50 was 5.70 to 6.00.

The compound `COc1ccc(Nc2cc(C)nc(-c3ccccc3O)n2)cc1` [47B] showed a pIC50 of 5.70 to 6.00.

Take `O=c1cc(CSc2nc3cc(Cl)ccc3o2)nc2sccn12` [112B]: the pIC50 was 6.30 to 6.70.

On to `O=C(Nc1cccnc1N1CCN(c2ncc(C(F)(F)F)cc2Cl)CC1)c1ccc(F)cc1` [81A], for which the pIC50 is 5.70 to 6.00.

Consider `O=C(Cc1cccc(F)c1)Nc1ccc(-c2nccs2)cc1` [compound 62], for which the pIC50 was 6.00 to 6.30.

`O=C(Nc1cccc(F)c1)Nc1ccc2c(c1)C(=O)OC2` [96B] gave a negative logarithm of the IC50 (pIC50) of less than 5.70.

In turn, `CC(C)Nc1ccc(-n2nc3ccccc3[n+]2[O-])cc1` [176A] gave a pIC50 of 5.70 to 6.00.

Turning to `N#Cc1c(-c2ccc(Br)cc2)csc1N1CCCCC1` [150A], the pIC50 is less than 5.70.

The compound `CCOC(=O)c1sc(NC(=O)c2ccc3ncsc3c2)cc1C` [compound 39] gave a pIC50 of 6.00 to 6.30.

Turning to `CCC(=O)Nc1ccc(Cl)c(NC(=O)c2ccc(OC(C)C)cc2)c1` [6B], the pIC50 was 6.00 to 6.30.

For the compound `CCc1c(C(=O)Nc2c(C)nn(-c3ccccc3)c2C)cnn1-c1ccc([N+](=O)[O-])cc1` [30A], the pIC50 was 5.70 to 6.00.

As to `Cc1ccc(-c2nc(Cn3cnc(C#N)n3)co2)c(C)c1` [134A], the pIC50 was 5.70 to 6.00.

`COc1ccc(-c2cnn3c(C)cc(C)nc23)cc1OC` [71B] had a negative logarithm of the IC50 (pIC50) of 5.70 to 6.00.

Regarding `CCc1cccc2c(C(=O)CSc3nnnn3C)c[nH]c12` [63B], the pIC50 is 5.70 to 6.00.

For the compound `Cc1cc(C)n(CC(C)Nc2ccc(Cl)c(C#N)n2)n1` (centres unmarked) [91A], the pIC50 was 5.70 to 6.00.

With `Cc1ccc(NC(=O)c2cc3c(=O)[nH]c(=O)n(C)c3nc2C)cc1Cl` [28B], the pIC50 was 6.30 to 6.70.

In turn, `N#Cc1cccnc1Oc1ccc(NC(=O)c2ccc(F)cc2F)cc1` [5A] gave a pIC50 of 5.70 to 6.00.

Take `c1ccc(-c2nc(COc3cccc(-n4cnnn4)c3)cs2)cc1` [54A]: the pIC50 is 5.70 to 6.00.

Take `Clc1ccc(-c2ncc(-c3cc[nH]n3)s2)cc1` [compound 64]: the pIC50 was 6.00 to 6.30.

As to `O=C(Nc1ccc(OC(F)F)c(Cl)c1)c1cccc(Cl)c1` [5B], the pIC50 is 6.00 to 6.30.

In turn, `O=C(CNC1=NS(=O)(=O)c2ccccc21)OCc1cn(-c2ccccc2)nc1-c1ccccc1` [58B] showed a pIC50 of less than 5.70.

With `Cc1c(COc2ccccc2C#N)noc1-c1ccc(F)cc1` [129A], the pIC50 was 5.70 to 6.00.

For the compound `O=[N+]([O-])c1ccc(C2COC(c3ccc(Cl)cc3)O2)cc1` (centres unmarked) [102B], the pIC50 is 5.70 to 6.00.

Take `Cc1ccc(N)cc1Nc1nccc(-c2cccnc2)n1` [compound 85]: the pIC50 is 6.00 to 6.30.

`CN1CC(c2ccccc2)=Cc2c1ccc1nonc21` [188A] showed a pIC50 of 5.70 to 6.00.

In turn, `FC(F)(F)c1ccc(N/N=C/c2ccc(Cl)cc2)nc1` [45B] showed a pIC50 of 5.70 to 6.00.

As to `Cc1ccc2cc(NC(=O)c3cccc4c3OC(C)(C)C4)ccc2n1` [50A], the pIC50 is less than 5.70.

In turn, `O=C(Nc1ccc(-c2cnc(C3CC3)o2)cc1)c1cccc(F)c1` [2A] showed a pIC50 of less than 5.70.

Take `Cc1ccc(-c2nc(CSc3nccn3-c3ccccc3)co2)cc1` [136A]: the pIC50 is less than 5.70.

`O=C(NCCn1nc(-c2cccs2)ccc1=O)c1cccs1` [194A] had a pIC50 of less than 5.70.

As to `Cc1ccc(NC(=O)c2ccc(OC(F)(F)F)cc2)nc1` [compound 10], the pIC50 was 6.00 to 6.30.

For the compound `CC(=O)c1csc(COc2cc(Cl)cc(Cl)c2)n1` [55A], the pIC50 was 5.70 to 6.00.

`Ic1ccc(-c2cnc(-c3ccncc3)o2)cc1` [76B] showed a pIC50 of 6.30 to 6.70.

Turning to `N#Cc1ccc(-c2csc(-c3ccsc3)n2)cc1` [33B], the pIC50 is 6.30 to 6.70.

Compound `Cc1ccc(NC(=O)CN(C)C(C)c2cccs2)c(F)c1` (centres unmarked) [147A] had a pIC50 of less than 5.70.

In turn, `O=C(Nc1nnc(-c2ccc(F)cc2)[nH]1)c1ccc(S(=O)(=O)C(F)F)cc1` [27A] gave a pIC50 of 5.70 to 6.00.

`CCCc1cc(C(=O)N2CCC(C3CCCCC3)C2)[nH]n1` (centres unmarked) [106A] gave a pIC50 of 5.70 to 6.00.

On to `Cc1c(C(N)=O)nnc2cc(-c3ccccc3)nn12` [75B], for which the pIC50 was 5.70 to 6.00.

Compound `O=C(c1cc2sc3ccccc3c2s1)N1CCCCC1` [186A] gave a pIC50 of less than 5.70.

In turn, `CCC(=O)N1CCc2nc(-c3ccccc3)sc2C1` [compound 147] showed a pIC50 of 6.00 to 6.30.

As to `N#Cc1c(NC(=O)c2cnn3cccnc23)sc2c1CCC2` [32B], the pIC50 was 5.70 to 6.00.

On to `CCc1cc2c(=O)c(-c3nc(C)cs3)coc2c(CN2CCCC(c3cccnc3)C2)c1O` (centres unmarked) [197A], for which the pIC50 was 5.70 to 6.00.

With `COc1ccc(C2=Nn3c(nc4ccsc4c3=O)SC2)cc1` [126B], the pIC50 is 5.70 to 6.00.

`Cc1cccc(NC(=O)c2nc(-c3cn(CC4CCCO4)cn3)n3ccccc23)c1` (centres unmarked) [47A] had a pIC50 of less than 5.70.

Take `Cc1cc(N(C)C)nc(N2CCN(C(=O)Nc3cccc(F)c3)CC2)n1` [79A]: the pIC50 was 5.70 to 6.00.

As to `CC(=O)N(CCc1ccccc1F)c1nc2ccccc2s1` [108B], the pIC50 was 5.70 to 6.00.

In turn, `CCn1cc(C(=O)Nc2ccc(C(C)C)cc2)cn1` [23A] gave a pIC50 of 5.70 to 6.00.

Take `O=c1ccc2ccc(OCc3ccc(F)cc3Cl)cc2o1` [111B]: the pIC50 is 6.30 to 6.70.

`COCCNc1c(C)c(C)nc2cc(-c3cc(C)oc3C)nn12` [119A] showed a pIC50 of 5.70 to 6.00.

Compound `Cn1nc(C2CC2)cc1C(=O)Nc1ccc(I)cc1` [compound 36] showed a pIC50 of 6.00 to 6.30.

`O=C(Nc1nc(-c2ccc(F)cc2)n[nH]1)c1cc(F)cc(F)c1` [14B]: the pIC50 is 6.00 to 6.30.

As for `COc1ccc(OCCSc2nc3ccc(Br)cc3[nH]2)cc1` [112A], the pIC50 was 5.70 to 6.00.

As to `Cc1ccc(C(=O)Nc2nc3c(C)cc(C)cc3s2)cc1` [22B], the pIC50 is 5.70 to 6.00.

In the case of `c1ccc(N2CCN(c3nc(N4CCCCC4)nc4nccnc34)CC2)cc1` [75A], the pIC50 is 5.70 to 6.00.

Compound `CN(C)c1oc(-c2ccc(COc3ccccc3)o2)nc1C#N` [151A] had a pIC50 of 5.70 to 6.00.

Regarding `Cc1cc(C)n(-c2ccc(NC(=O)c3ccc(OC(F)F)cc3)cc2F)n1` [9A], the pIC50 is less than 5.70.

For the compound `CN(C)C(=O)c1ccc(-c2cc(C(F)(F)F)nn2C)s1` [59B], the pIC50 is 6.00 to 6.30.

On to `COc1ccc2cc(C)c3nn(CCNC(=O)c4sc(C)nc4C)c(=O)n3c2c1` [191A], for which the pIC50 is less than 5.70.

For `Cc1nc(N2CCN(c3ccccc3F)CC2)nc2c1C(=O)CCC2` [77A], the pIC50 is 5.70 to 6.00.

For `CCc1nnc(-c2ccc(NC(=O)c3ccccc3OC)cc2)o1` [3A], the pIC50 was 5.70 to 6.00.

The compound `O=C(c1csc(-c2ccsc2)n1)N1CCCc2cc(C(F)(F)F)ccc21` [37B] showed a pIC50 of 6.30 to 6.70.
